21 molecules from patent US11440906B2, “Biguanide derivatives and their rearrangement products for use in the treatment of cancer” (CENTRE NATIONAL DE LA RECHERCHE SCIENTIFIQUE, priority 2017, dated 2022) can be followed below.

In this experiment the test system is A375 Sensitive cells. As to the kind of experiment: Viability test, trypan blue exclusion, A375 Sensitive cells. Format: cell-based, human. The conditions noted are these: Homo sapiens, A-375, viable cells as percentage of DMSO control. The text has this: Different melanoma cell lines were purchased from the American Tissue Culture Collection: A375 and WM9 cells are mutated on B-Raf, CDKN2A and PTEN proteins; SKmel28 cells are mutated on B-Raf and P53 proteins; 1205Lu cells are mutated on B-Raf and PTEN proteins; G-361 cells are mutated on B-Raf and CDKN2A proteins; C8161 cells are mutated on B-Raf and K-Ras proteins; WM3912 cells are mutated on B-Raf and CDKN2A proteins; MeWo cells are mutated on P53 and CDKN2A proteins; WM3918 presents no mutations on characteristic proteins.
For trypan blue staining, […] of cells (melanoma and normal human cells) were aseptically transferred to a 1.5 mL clear Eppendorf tube and incubated for 3 min at room temperature with an equal volume of 0.4% trypan blue solution. Viable cells were counted and the results are expressed as the percentage of the value of control cells. All the experiments are performed 3 times in triplicate.
A375 Sensitive cells were treated with different concentrations of the synthesized molecules (5.0 μM or 10 μM) for different times (24 hr or 48 hr) or with DMSO (Control) for 12 or 48 hr. At the end of the stimulation, viable cells were counted using the trypan blue dye exclusion method. The results are normalized as percentages compare to the control.
A375 Sensitive cells were treated with 5 μM of CRO15 for different times (2 hr, 4 hr, 6 hr, 8 hr, 12 hr, 24 hr or 48 hr) or with 5 μM of PLX4032 (B-Raf inhibitor) for 48 hr or with DMSO (Control) for 48 hr. At the end of stimulation, viable cells were counted using the trypan blue dye exclusion method. The results are normalized as percentages compare to the control and data means±SEM of three independent experiments performed in triplicate *p<0.05; **p<0.01; ***p<0.001.
A375 Sensitive cells were treated with different concentrations of CRO15 (0.5 μM, 2.5 μM, 5.0 μM, 7.5 μM, 50 μM) for 48 hr or with 5 μM of PLX4032 (B-Raf inhibitor) for 48 hr or with DMSO (Control) for 48 hr. At the end of the stimulation, viable cells were counted using the trypan blue dye exclusion method. The results are normalized as percentages compare to the control and data means±SEM of three independent experiments performed in triplicate *p<0.05; **p<0.01; ***p<0.001.
A375 sensitive and resistant melanoma cells were treated with 5 μM of CRO15 for 48 hr or with 5 μM of PLX4032 for 48 hr or with DMSO (Control). At 48 hours, viable cells were counted using the trypan blue dye exclusion method. The results are normalized as percentages compare to the control and data means±SEM of three independent experiments performed in triplicate *p<0.05; **p<0.01; ***p<0.001.

[1] abbreviates: 24 h, read-out: Viab A375 5 μM/ 24 h.
[2] abbreviates: 48 h, read-out: Viab A375 5 μM/ 48 h.
Where [3] appears, read: 24 h, read-out: Viab A375 10 μM/ 24 h.
The mark [4] stands for this setting: 48 h, read-out: Viab A375 10 μM/ 48 h.

Molecules are shown by their SMILES. Where two headings read alike, the source gives them in different places.

On to `Cc1nc(NC(=N)NC(=N)c2ccccn2)sc1C` [MTF 297, N—(N-(4,5-dimethylthiazol-2-yl)carbamimidoyl)picolinimidamide], for which the viability at 5 µM under setting [1] was determined as 86.2% and the viability at 5 µM under setting [2] was 59.8%. In addition, the viability at 10 µM is, setting by setting: under setting [3], 97.9%; under setting [4], 24.9%.

Turning to `Cc1nc(NC(=N)NC(=N)c2cccnc2)sc1C` [MTF 298, N—(N-(4,5-dimethylthiazol-2-yl)carbamimidoyl)nicotinimidamide], the viability at 5 µM under setting [1] amounted to 97.2% and the viability at 5 µM under setting [2] amounted to 73.6%. Further, the viability at 10 µM is 87.5% under setting [3] and 54.7% under setting [4].

As for `Cc1nc(NC(=N)NC(=N)c2ccncc2)sc1C` [MTF 299, N—(N-(4,5-dimethylthiazol-2-yl)carbamimidoyl)isonicotinimidamide], the viability at 5 µM is, setting by setting: under setting [1], 91.1%; under setting [2], 76.6%. Also, the viability at 10 µM reads like this: under setting [3], 72.8%; under setting [4], 46.2%.

For `Cc1nc(NC(=N)NC(=N)c2ccccc2Cl)sc1C` [MTF 300, 2-chloro-N—(N-(4,5-dimethylthiazol-2-yl)carbamimidoyl)benzimidamide], the viability at 5 µM is 96% under setting [1] and 60% under setting [2]. Also, the viability at 10 µM reads like this: under setting [3], 50.8%; under setting [4], 35.9%.

As for `Cc1nc(NC(=N)NC(=N)c2cccc(Cl)c2)sc1C` [MTF 301, 3-chloro-N—(N-(4,5-dimethylthiazol-2-yl)carbamimidoyl)benzimidamide], the viability at 5 µM is, setting by setting: under setting [1], 74%; under setting [2], 47%. For the same molecule, the viability at 10 µM under setting [3] worked out at 106% and the viability at 10 µM under setting [4] was determined as 31.6%.

On to `Cc1nc(NC(=N)NC(=N)c2ccc(Cl)cc2)sc1C` [MTF 302, 4-chloro-N—(N-(4,5-dimethylthiazol-2-yl)carbamimidoyl)benzimidamide], for which the viability at 5 µM came out at 105% under setting [1] and 52.3% under setting [2]. The viability at 10 µM runs as follows: under setting [3], 94.8%; under setting [4], 39.3%.

`Cc1nc(NC(=N)NC(=N)c2ccccc2)sc1C` [MTF 303, N—(N-(4,5-dimethylthiazol-2-yl)carbamimidoyl)benzimidamide]: the viability at 5 µM reads like this: under setting [1], 85.6%; under setting [2], 44.2%. For the same molecule, the viability at 10 µM came out at 66.1% under setting [3] and 39.1% under setting [4].

In the case of `N=C(NC(=N)C(Cl)(Cl)Cl)Nc1nc2ccccc2s1` [MTF 305, N—(N-(benzo[d]thiazol-2-yl)carbamimidoyl)-2,2,2-trichloroacetimidamide], the viability at 5 µM under setting [1] came out at 11% and the viability at 5 µM under setting [2] was determined as 20.7%. Further, the viability at 10 µM reads like this: under setting [3], 5.5%; under setting [4], 4.7%.

Consider `CSc1ccccc1Nc1nc(N)nc(C(Cl)(Cl)Cl)n1` [MTF 316, N2-(2-(methylthio)phenyl)-6-(trichloromethyl)-1,3,5-triazine-2,4-diamine], for which the viability at 5 µM under setting [1] was 124% and the viability at 5 µM under setting [2] was determined as 69.6%. For the same molecule, the viability at 10 µM under setting [3] is 104% and the viability at 10 µM under setting [4] is 48.2%.

Take `CSc1ccccc1Nc1nc(N)nc(C(Cl)Cl)n1` [MTF 317, 6-(dichloromethyl)-N2-(2-(methylthio)phenyl)-1,3,5-triazine-2,4-diamine]: the viability at 5 µM is, setting by setting: under setting [1], 106%; under setting [2], 58.7%. For the same molecule, the viability at 10 µM came to 109% under setting [3] and 70% under setting [4].

As to `COc1cccc(-c2nc(N)nc(Nc3ccccc3SSc3ccccc3Nc3nc(N)nc(-c4cccc(OC)c4)n3)n2)c1` [MTF 318], the viability at 5 µM under setting [1] is 74.1% and the viability at 5 µM under setting [2] was found to be 21.6%. The viability at 10 µM is, setting by setting: under setting [3], 20.5%; under setting [4], 6.3%.

In the case of `Nc1nc(Nc2ccccc2SSc2ccccc2Nc2nc(N)nc(-c3cccc(F)c3)n2)nc(-c2cccc(F)c2)n1` [MTF 320], the viability at 5 µM under setting [1] turned out to be 18.3% and the viability at 5 µM under setting [2] amounted to 11.5%. Further, the viability at 10 µM under setting [3] was 10.8% and the viability at 10 µM under setting [4] was determined as 8.5%.

As to `Nc1nc(Nc2ccccc2SSc2ccccc2Nc2nc(N)nc(-c3ccccn3)n2)nc(-c2ccccn2)n1` [MTF 321, N2,N2′-(disulfanediylbis(2,1-phenylene))bis(6-(pyridin-2-yl)-1,3,5-triazine-2,4-diamine)], the viability at 5 µM is, setting by setting: under setting [1], 59.7%; under setting [2], 34.5%. Besides, the viability at 10 µM by setting is: under setting [3], 53.8%; under setting [4], 32.1%.

As for `Nc1nc(Nc2ccccc2SSc2ccccc2Nc2nc(N)nc(-c3cccc(Cl)c3)n2)nc(-c2cccc(Cl)c2)n1` [MTF 322, N2,N2′-(disulfanediylbis(2,1-phenylene))bis(6-(3-chlorophenyl)-1,3,5-triazine-2,4-diamine)], the viability at 5 µM is, setting by setting: under setting [1], 57.4%; under setting [2], 12.1%. The viability at 10 µM runs as follows: under setting [3], 26.9%; under setting [4], 5.7%.

On to `Nc1nc(Nc2ccccc2SSc2ccccc2Nc2nc(N)nc(-c3cccc(Br)c3)n2)nc(-c2cccc(Br)c2)n1` [MTF 323, N2,N2′-(disulfanediylbis(2,1-phenylene))bis(6-(3-bromophenyl)-1,3,5-triazine-2,4-diamine)], for which the viability at 5 µM is, setting by setting: under setting [1], 34.6%; under setting [2], 23.5%. For the same molecule, the viability at 10 µM reads like this: under setting [3], 47.4%; under setting [4], 8.3%.

As to `COc1ccc(-c2nc(N)nc(Nc3ccccc3SSc3ccccc3Nc3nc(N)nc(-c4ccc(OC)cc4)n3)n2)cc1` [MTF 324, N2,N2′-(disulfanediylbis(2,1-phenylene))bis(6-(4-methoxyphenyl)-1,3,5-triazine-2,4-diamine)], the viability at 5 µM by setting is: under setting [1], 44.1%; under setting [2], 13.3%. In addition, the viability at 10 µM was 12.9% under setting [3] and 8.2% under setting [4].

On to `N#Cc1cccc(-c2nc(N)nc(Nc3ccccc3SSc3ccccc3Nc3nc(N)nc(-c4cccc(C#N)c4)n3)n2)c1` [MTF 325, 3,3′-(((disulfanediylbis(2,1-phenylene))bis(azanediyl))bis(6-amino-1,3,5-triazine-4,2-diyl))dibenzonitrile], for which the viability at 5 µM by setting is: under setting [1], 58.1%; under setting [2], 30.9%. Besides, the viability at 10 µM came out at 71% under setting [3] and 29.7% under setting [4].

On to `Nc1nc(Nc2ccccc2SSc2ccccc2Nc2nc(N)nc(-c3ccccc3)n2)nc(-c2ccccc2)n1` [MTF 326, N2,N2′-(disulfanediylbis(2,1-phenylene))bis(6-phenyl-1,3,5-triazine-2,4-diamine)], for which the viability at 5 µM was found to be 27.4% under setting [1] and 27.9% under setting [2]. Moreover, the viability at 10 µM under setting [3] was 12.9% and the viability at 10 µM under setting [4] was 6.7%.

As to `Nc1nc(Nc2ccccc2SSc2ccccc2Nc2nc(N)nc(-c3ccc(Cl)cc3)n2)nc(-c2ccc(Cl)cc2)n1` [MTF 327, N2,N2′-(disulfanediylbis(2,1-phenylene))bis(6-(4-chlorophenyl)-1,3,5-triazine-2,4-diamine)], the viability at 5 µM reads like this: under setting [1], 19.4%; under setting [2], 14.5%. For the same molecule, the viability at 10 µM reads like this: under setting [3], 23.7%; under setting [4], 14.5%.

With `Nc1nc(Nc2ccccc2SSc2ccccc2Nc2nc(N)nc(-c3ccc(I)cc3)n2)nc(-c2ccc(I)cc2)n1` [MTF 328, N2,N2′-(disulfanediylbis(2,1-phenylene))bis(6-(4-iodophenyl)-1,3,5-triazine-2,4-diamine)], the viability at 5 µM turned out to be 50% under setting [1] and 9.4% under setting [2]. Moreover, the viability at 10 µM under setting [3] worked out at 27.8% and the viability at 10 µM under setting [4] came out at 3.4%.

As for `Nc1nc(Nc2ccccc2SSc2ccccc2Nc2nc(N)nc(-c3ccncc3)n2)nc(-c2ccncc2)n1` [MTF 329, N2,N2′-(disulfanediylbis(2,1-phenylene))bis(6-(pyridin-4-yl)-1,3,5-triazine-2,4-diamine)], the viability at 5 µM reads like this: under setting [1], 96.2%; under setting [2], 69.7%. Also, the viability at 10 µM worked out at 74.2% under setting [3] and 22.5% under setting [4].
